In patent publication US20200368174A1, “PARTICLES FOR TARGETED DELIVERY OF ACTIVE AGENTS INTO ADIPOSE STROMAL CELLS” (Texas Tech University System, priority 2018, published 2020):
Where no end group is shown, it is not given here. Side-chain parts run from the residue outwards. The star is where a group is joined. DSPE = CCCCCCCCCCCCCCCCCC(=O)OC[C@H](COP(=O)(O)OCCN*)OC(=O)CCCCCCCCCCCCCCCCC; MAL = maleimide

Assays:
[1] = Aqueous solubility, 1 mg R in 1 mL 1×PBS; format: physicochemical; settings: visual observation
[2] = Chemical stability of R by HPLC under light or dark; format: physicochemical
[3] = In vitro release, dialysis method (Example 1); format: physicochemical; settings: for R released from dialysis bag: bag containing 0.5 mg R
Protocol: The dissolution medium was composed of 1×PBS and methanol (80:20, v/v). […] See Sun et al., Colloids Surf B Biointerfaces, 113 (2014) 15-24.
The release study was conducted in the dark to prevent light-induced R degradation. To minimize the effect of R stability, the dissolution medium was changed completely each hour for the first 2 hr, and every 2 hr for the rest 8 hr.

[4] = tested on: 3T3-L1 white adipocytes; assay: Browning: marker mRNA by Real Time-PCR in differentiating adipocytes, basal or ISO-stimulated; format: cell-based, Murine
Protocol: The cells were then stimulated with isoproterenol (ISO) for 6 hr. Relative mRNA expression of Uncoupling protein 1 (UCP-1), PPARγ, PPARγ co-activator 1α (PGC-1α), and PR-domain-containing 16 (PRDM16) were analyzed by semi-quantitative Real Time-PCR. Data=mean±SEM (n=3). E, Ethanol containing vehicle control for native R. R, rosiglitazone, a positive control. Letters of a-c or a′-c′ on top of the bars define differences among various forms of R under either basal or ISO-stimulated conditions, respectively. Different letters indicate significant differences among various R. *, p<0.05; **, p<0.01; ***, p<0.001 compared to their controls.
The cells were then stimulated with ISO for 6 hr. Relative mRNA expression of white marker insulin-like growth factor-binding protein 3 (IGFBP3) (FIG. 9A) and beige marker CD137 and transmembrane protein 26 (Tmem26) (FIG. 9B) were analyzed by semi-quantitative reverse transcription polymerase chain reaction (RT-PCR). Data=mean±SEM (n=3). E, Ethanol containing vehicle control for native R. R, rosiglitazone, a positive control. Letters of a-c or a′-c′ on top of the bars define differences among various forms of R under both basal and ISO-stimulated conditions, respectively. Different letters indicate significant differences among various R. *, p<0.05; **, p<0.01 compared to the controls.
Total RNA was extracted, cDNA was synthesized, and real-time PCR was performed using an ABI 7300HT instrument.
The hallmark of beige adipocytes is induced thermogenesis in response to stimuli, such as […] agonist ISO.

[5] = In vitro release, dialysis method (Example 2); format: physicochemical
Protocol: The mean particle size, PI and zeta potential were measured every day. The in vitro release behavior was measured in the dissolution medium, which was composed of 1× phosphate buffer saline (1×PBS, pH 7.4) and methanol (80:20, v/v), using a dialysis method. […] R released into the medium at each time point was determined using the Shimadzu high-performance liquid chromatography (HPLC) system (Shimadzu Corporation, Kyoto, Japan).

[6] = tested on: obese C57BL/6J mice; assay: Anti-obesity study: body weight, composition, food intake, fat pads, adipocyte size; format: in vivo
Protocol: (§1) Sixty male 6-week old C57BL/6J mice from Jackson's lab were fed with a high-fat diet (HFD) (45% energy from fat, Research Diets, Inc, D12451) for 9 weeks starting from week 1 (age 7 weeks old) to week 9 (age 15 weeks old). The mice were allowed to drink and eat the HFD ad libitum and maintained at 22-24° C., 45% relative humidity and a daily 12/12 hour light/dark cycle. […] Treatments were intravenously injected into mice via tail veins twice a week. Food intake and body weight were recorded weekly. Glucose tolerance test (GTT) was conducted at week 8 and the insulin tolerance test (ITT) and cold tolerance test were conducted at week 9.
After 9 weeks, mice were fasted overnight and humanely sacrificed. Blood was collected from the abdominal vein and brain, liver, lung, spleen, kidneys, skeletal muscle, gonadal white adipose tissue (G-WAT), inguinal WAT (I-WAT), retroperitoneal WAT (RP-WAT), and BAT of each mouse. Each tissue was cut into 3 pieces to be immediately frozen in liquid nitrogen followed by storage at −80° C. and fixed in 4% paraformaldehyde (for histology).
Body composition of mice was performed at week 0, 2, 4 and 5 of treatments using an EchoMRI™ Whole Body Composition Analyzer (MRI system) (EchoMRI LLC, Houston, Tex., USA).
H&E staining of I-WAT was conducted by the Department of Pathology of Texas Tech University Health Sciences Center. Briefly, the paraffin-embedded I-WAT sections (5 μm) were deparaffinized and rehydrated with xylene and ethanol. Sections were cleaned with water to skim reagent residue. Excess water was then blotted, the sections were incubated with Hematoxylin for 4 minutes, and washed several times using water. The sections were stained with Eosin and dehydrated. Finally, the sections were cleaned and covered with xylene-based mounting medium.

[7] = tested on: obese C57BL/6J mice; assay: Fasting insulin, glucose, HOMA-IR, leptin, GTT and ITT; settings: mouse, in vivo
Protocol: as §1
GTT and ITT were performed at end of treatments to assess whole-body glucose and insulin tolerance. […] Blood was collected and blood glucose concentrations were measured with a One Touch® glucometer from tail vein blood at 0, 15, 30, 60, 90, and 120 minutes post-injection. […] Blood glucose concentrations were measured as above at 0, 15, 30, 45, and 60 minutes post-injection. The area under the curve (AUC) was calculated. Blood glucose concentrations were plotted against time and the area under curve was calculated by following formula: […]
Fasting plasma glucose concentrations were measured by One Touch® glucometer. Fasting insulin concentrations were determined by an insulin Millipore® ELISA commercial kit (Millipore, Billerica, Mass., USA). […]

[8] = cited from earlier work
[9] = tested on: primary stromal stem/progenitor cells derived from inguinal WAT (iWAT); settings: 10 μM, brown-like differentiation; cited from earlier work
[10] = molecular target: decorin lacking the glycanation site (ΔDCN), on ΔDCN-transduced 3T3-L1 cells (ΔDCN cells); assay: cell-based or functional assay
[11] = molecular target: endogenous surface ΔDCN receptor of mouse adipose stromal cells (ASC) in C57BL/6J white adipose tissue stromal vascular cells (mouse); assay: cell-based or functional assay
[12] = molecular target: decorin lacking the glycanation site (ΔDCN), on ΔDCN-transduced 3T3-L1 cells (ΔDCN cells); assay: flow cytometry of ΔDCN cells incubated 2 h at 37° C. with DiD-labelled nanoparticles

Molecule: Oc1ccc(/C=C/c2cc(O)cc(O)c2)cc1 [native R, 3,5,4′-trihydroxy-trans-stilbene]
- dissolution of 1 mg in 1 mL of 1×PBS [1]: hardly dissolved
- R degradation rate ([2]; 4° C., dark, 7 days): 17%
- R degradation rate ([2]; 22° C., dark, 7 days): 48%
- R degradation rate ([2]; 37° C., dark, 7 days): 52%
- R degradation rate ([2]; 37° C., under the light, 6 days): 90%
- R degraded ([2]; pH 7.4, 4° C., under the light, 7 days): 40%
- R degraded ([2]; pH 7.4, 22° C., under the light, 7 days): 60%
- R degraded ([2]; pH 7.4, 37° C., under the light, 7 days): 96%
- release behavior ([3]; 1×PBS:methanol 80:20, dark): burst release
- R released from dialysis bag ([3]; 2-4 hr period): about 0.02 mg
- accumulative released R mass ([3]; 10 hr period): reached a plateau
- R released from dialysis bag ([3]; after 1 hr): about 0.17 mg
- Cox4a mRNA ([4]; 20 μM, ISO stimulated): increased
- CD137 mRNA expression ([4]; ISO stimulated conditions): dose-dependently increased
- Tmem26 expression ([4]; ISO stimulation): increased
- PRDM16 mRNA expression ([4]; basal conditions): did not change
- Tmem26 mRNA expression ([4]; basal conditions): decreased
- IGFBP3 mRNA expression compared to controls ([4]; both basal and ISO stimulated conditions): dose-dependently decreased
- R release ([5]; after eight hours): undetected
- R released from dialysis bag ([5]; first two hours): more than 0.13 mg
- released R as share of total R ([5]; first two hours): around 35%
- mass of R released at every time point ([5]; following six hours): lower than 0.02 mg
- diameter of adipocytes in I-WAT ([6]; H&E sections, after 5 weeks): around 100 μm
- body weight ([6]; HFD mice, 15 mg/kg, IV twice a week, 5 weeks, vs saline): no significant reduction
- percentage of body fat (% body fat) ([6]; HFD mice, 15 mg/kg, IV twice a week, 5 weeks, vs saline, listed as Free R, 15 mg/kg): slightly lower
- percentage of body fat (% body fat) ([6]; HFD mice, 15 mg/kg, IV twice a week, 5 weeks, vs saline, listed as free R, 15 mg/kg): no significant reduction
- body weight gain ([6]; compared with saline group): decrease
- adipocyte size / area of cells in I-WAT ([6]; vs saline): no significant reduction
- fasting blood insulin and glucose concentrations compared to saline [7]: reduced
- solubility of R in water and physiological fluid [8]: less than 0.1 mg/mL
- mRNA expression of UCP1 and beige marker CD137 and Tmem26 [9]: enhanced

B1: ligand-coated Rnano (L-Rnano): resveratrol-loaded lipid nanoparticle carrying DSPE-PEG5000-peptide, the linear ASC-targeting peptide … (SEQ ID NO: 2), on its … (peptide)
peptide: GSWKYWFGEGGC([MAL-PEG5000-DSPE])
modifications: also: displayed in many copies on lipid nanoparticle, copy number not given here
- ΔDCN cells R content at 4° C. for 4 hours, against free R and Rnano [10]: 2 fold
- DiD+ ASC after intravenous injection, DiD-L-Rnano mouse against DiD-Rnano treatment (flow cytometry; depot not given, I-WAT by context) [11]: 9.3 fold
- DiD+ cell ratio among the ASC population after intravenous injection of DiD-L-Rnano (flow cytometry; depot not given, I-WAT by context) [11]: 31.7%
- cellular R content of SVCs at 4° C., against free R-treated SVF cells [11]: 2.8 fold
- cellular R content of SVCs at 37° C., against free R-treated SVF cells [11]: 2.5 fold
- percentage of DiD+ ASC in G-WAT after intravenous injection, DiD-L-Rnano mouse against DiD-Rnano mouse (flow cytometry) [11]: 3.5 fold
- percentage of DiD+ ASC in RP-WAT after intravenous injection, DiD-L-Rnano mouse against DiD-Rnano mouse (flow cytometry) [11]: 4.8 fold
- fold DiD positive rate of ΔDCN cells against DiD-labeled Rnano [12]: 5 fold
